ChEMBL document CHEMBL4002627, “Quinolidene based monocarbonyl curcumin analogues as promising antimycobacterial agents: Synthesis and molecular docking study” (Bioorg Med Chem Lett, 2017)
≈ marks a conversion by molar mass, not a printed value.

Columns and labels:
[1] = tested on: Mycobacterium tuberculosis; assay: Antimycobacterial activity against dormant state of Mycobacterium tuberculosis H37Ra by two fold dilution method; type: functional
[2] = tested on: Mycobacterium tuberculosis; assay: Antimycobacterial activity against dormant state of Mycobacterium tuberculosis H37Ra assessed as growth inhibition at 30 ug/ml after 12 days by XTT reduction menadione assay relative to control; type: functional; conditions: 288 h, read-out: GI
[3] = tested on: Mycobacterium tuberculosis; assay: Antimycobacterial activity against dormant state of Mycobacterium tuberculosis H37Ra assessed as growth inhibition at 10 ug/ml after 12 days by XTT reduction menadione assay relative to control; type: functional; conditions: 288 h, read-out: GI
[4] = tested on: Mycobacterium tuberculosis; assay: Antimycobacterial activity against dormant state of Mycobacterium tuberculosis H37Ra assessed as growth inhibition at 3 ug/ml after 12 days by XTT reduction menadione assay relative to control; type: functional; conditions: 288 h, read-out: GI
[5] = Cytotoxicity against human MCF7 cells assessed as growth inhibition at 30 ug/ml after 48 hrs by MTT assay relative to control; type: cell-based; conditions: read-out: GI
[6] = Cytotoxicity against human MCF7 cells assessed as growth inhibition at 10 ug/ml after 48 hrs by MTT assay relative to control; type: cell-based; conditions: read-out: GI
[7] = Cytotoxicity against human MCF7 cells assessed as growth inhibition at 3 ug/ml after 48 hrs by MTT assay relative to control; type: cell-based; conditions: read-out: GI
[8] = Cytotoxicity against human A549 cells assessed as growth inhibition at 30 ug/ml after 48 hrs by MTT assay relative to control; type: cell-based; conditions: read-out: GI
[9] = Cytotoxicity against human A549 cells assessed as growth inhibition at 10 ug/ml after 48 hrs by MTT assay relative to control; type: cell-based; conditions: read-out: GI
[10] = Cytotoxicity against human A549 cells assessed as growth inhibition at 3 ug/ml after 48 hrs by MTT assay relative to control; type: cell-based; conditions: read-out: GI
[11] = Cytotoxicity against human HCT116 cells assessed as growth inhibition at 30 ug/ml after 48 hrs by MTT assay relative to control; type: cell-based, HCT-116; conditions: read-out: GI
[12] = Cytotoxicity against human HCT116 cells assessed as growth inhibition at 10 ug/ml after 48 hrs by MTT assay relative to control; type: cell-based, HCT-116; conditions: read-out: GI
[13] = Cytotoxicity against human HCT116 cells assessed as growth inhibition at 3 ug/ml after 48 hrs by MTT assay relative to control; type: cell-based, HCT-116; conditions: read-out: GI
[14] = (§1) Cytotoxicity against human MCF7 cells assessed as growth inhibition after 48 hrs by MTT assay; type: cell-based; conditions: MCF7 cells
MCF7 = assay: as §1; type: cell-based; conditions: mcf7, 48 h
[15] = (§2) Cytotoxicity against human A549 cells assessed as growth inhibition after 48 hrs by MTT assay; type: cell-based; conditions: A549 cells
A549 = assay: as §2; type: cell-based; conditions: a549, 48 h
[16] = (§3) Cytotoxicity against human HCT116 cells assessed as growth inhibition after 48 hrs by MTT assay; type: cell-based, HCT-116; conditions: HCT116 cells
HCT-116 = assay: as §3; type: cell-based; conditions: hct-116, 48 h
Escherichia coli = assay: Antibacterial activity against Escherichia coli ATCC […] after 8 hrs; type: functional
Pseudomonas fluorescens = assay: Antibacterial activity against Pseudomonas fluorescens ATCC 13525 after 8 hrs; type: functional; conditions: ATCC 13525, 8 h
Staphylococcus aureus = assay: Antibacterial activity against Staphylococcus aureus ATCC 29213 after 12 hrs; type: functional; conditions: ATCC 29213, 12 h
Bacillus subtilis = assay: Antibacterial activity against Bacillus subtilis ATCC 23857 after 12 hrs; type: functional; conditions: ATCC 23857, 12 h

SMILES | MIC50 [1] | MIC90 [1] | inhibition of growth at 30 µg/mL [2] | inhibition of growth at 10 µg/mL [3] | inhibition of growth at 3 µg/mL [4] | inhibition at 48 h, 30 ug/ml [5] | inhibition at 48 h, 10 ug/ml [6] | inhibition at 48 h, 3 ug/ml [7] | inhibition at 48 h, 30 ug/ml [8] | inhibition at 48 h, 10 ug/ml [9] | inhibition at 48 h, 3 ug/ml [10] | inhibition at 48 h, 30 ug/ml [11] | inhibition at 48 h, 10 ug/ml [12] | inhibition at 48 h, 3 ug/ml [13] | GI90 (MCF7) | GI90 (A549) | GI50 at 48 h [16] | GI90 (HCT-116) | MIC50 (Staphylococcus aureus) | MIC90 (Staphylococcus aureus) | also measured
Cc1cccc2cc(/C=C3\CN(C)C/C(=C\c4cc5cccc(C)c5nc4Cl)C3=O)c(Cl)nc12 | 27 µg/mL (≈ 55.3 µM) | > 30 µg/mL | 51.5% | 15.3% | 22.4% | 0% | 0% | 0% | -20.4% | 0% | -11% | 1.6% | 4.1% | -4.3% | – | – | – | – | – | – | –
O=C1/C(=C/c2cc3cc(Cl)ccc3nc2Cl)CNC/C1=C\c1cc2cc(Cl)ccc2nc1Cl | 27.8 µg/mL (≈ 54 µM) | > 30 µg/mL | 53.8% | 24.5% | 23.7% | 50% | 22.8% | 14.3% | -12% | 0% | 2.3% | -14.5% | -22.2% | -18.3% | – | – | – | – | – | – | –
COc1ccc2nc(Cl)c(/C=C3\CNC/C(=C\c4cc5cc(OC)ccc5nc4Cl)C3=O)cc2c1 | 12.1 µg/mL (≈ 23.9 µM) | 27.9 µg/mL (≈ 55.1 µM) | 95.4% | 44.7% | 31.2% | 27.4% | 32.5% | 4.7% | 0% | 0% | 0% | 0% | 0% | 0% | > 100 µg/mL | > 100 µg/mL | 9.83 µg/mL (≈ 19.4 µM) | > 100 µg/mL | > 30 µg/mL | > 30 µg/mL | GI50 at 48 h [14]: 8.93 µg/mL (≈ 17.6 µM); GI50 at 48 h [15]: > 100 µg/mL; MIC50 (Escherichia coli): > 30 µg/mL; MIC90 (Escherichia coli): > 30 µg/mL; MIC50 (Pseudomonas fluorescens): > 30 µg/mL; MIC90 (Pseudomonas fluorescens): > 30 µg/mL; MIC50 (Bacillus subtilis): > 30 µg/mL; MIC90 (Bacillus subtilis): > 30 µg/mL
Cc1ccc2nc(Cl)c(/C=C3\CNC/C(=C\c4cc5cc(C)ccc5nc4Cl)C3=O)cc2c1 | > 30 µg/mL | > 30 µg/mL | 34.4% | 28.5% | 9.9% | 14.2% | 17.7% | 0.9% | 0% | 0% | -18.7% | 21.8% | 16.3% | 5.5% | – | – | – | – | – | – | –
Cc1ccc2cc(/C=C3\CN(C)C/C(=C\c4cc5ccc(C)cc5nc4Cl)C3=O)c(Cl)nc2c1 | 7.7 µg/mL (≈ 15.8 µM) | 20 µg/mL (≈ 40.9 µM) | 98.6% | 81.7% | -17.1% | 63.7% | 52% | 46.1% | 45.7% | 34.6% | 30.2% | 27.4% | 13.7% | 12.9% | > 100 µg/mL | > 100 µg/mL | > 100 µg/mL | > 100 µg/mL | > 30 µg/mL | > 30 µg/mL | GI50 at 48 h [14]: 8.23 µg/mL (≈ 16.9 µM); GI50 at 48 h [15]: > 100 µg/mL; MIC50 (Escherichia coli): > 30 µg/mL; MIC90 (Escherichia coli): > 30 µg/mL; MIC50 (Pseudomonas fluorescens): > 30 µg/mL; MIC90 (Pseudomonas fluorescens): > 30 µg/mL; MIC50 (Bacillus subtilis): > 30 µg/mL; MIC90 (Bacillus subtilis): > 30 µg/mL
Cc1cccc2cc(/C=C3\CNC/C(=C\c4cc5cccc(C)c5nc4Cl)C3=O)c(Cl)nc12 | > 30 µg/mL | > 30 µg/mL | 12.6% | 32.7% | 4.6% | 0% | 0% | 0% | -13.9% | 0% | 0% | 13.7% | 10.4% | 3.2% | – | – | – | – | – | – | –
CC(=O)O[C@H]1C(=O)[C@@]2(C)[C@H]([C@H](OC(=O)c3ccccc3)[C@]3(O)C[C@H](OC(=O)[C@H](O)[C@@H](NC(=O)c4ccccc4)c4ccccc4)C(C)=C1C3(C)C)[C@]1(OC(C)=O)CO[C@@H]1C[C@@H]2O [PACLITAXEL] | – | – | – | – | – | – | – | – | – | – | – | – | – | – | 0.075 µg/mL (≈ 0.0878 µM) | 0.0706 µg/mL (≈ 0.0827 µM) | 0.128 µg/mL (≈ 0.15 µM) | 5.715 µg/mL (≈ 6.69 µM) | – | – | –
Cc1ccc2nc(Cl)c(/C=C3\CN(C)C/C(=C\c4cc5cc(C)ccc5nc4Cl)C3=O)cc2c1 | > 30 µg/mL | > 30 µg/mL | 36.8% | 15.6% | -18.6% | 44.8% | 18.7% | 1.7% | 0% | 0% | 0% | 16.5% | 10.5% | 12.5% | – | – | – | – | – | – | –
COc1ccc2nc(Cl)c(/C=C3\CN(C)C/C(=C\c4cc5cc(OC)ccc5nc4Cl)C3=O)cc2c1 | > 30 µg/mL | > 30 µg/mL | -0.8% | -5.8% | 52% | 39% | -7.4% | -7.1% | 0% | 0% | 0% | 10.2% | 12.2% | -2.1% | – | – | – | – | – | – | –
NC[C@H]1O[C@H](O[C@H]2[C@H](O)[C@@H](O[C@H]3O[C@H](CO)[C@@H](O)[C@H](N)[C@H]3O)[C@H](N)C[C@@H]2N)[C@H](O)[C@@H](O)[C@@H]1O [KANAMYCIN] | – | – | – | – | – | – | – | – | – | – | – | – | – | – | – | – | – | – | > 30 µg/mL | 16 µg/mL (≈ 33 µM) | –
Cc1ccc2cc(/C=C3\CNC/C(=C\c4cc5ccc(C)cc5nc4Cl)C3=O)c(Cl)nc2c1 | 8.7 µg/mL (≈ 18.3 µM) | 25.5 µg/mL (≈ 53.8 µM) | 98.3% | 61.2% | 5.8% | 15.7% | 10.1% | -3.4% | 0% | -16.9% | 5.4% | 33.8% | 30.9% | 29.7% | > 100 µg/mL | > 100 µg/mL | > 100 µg/mL | > 100 µg/mL | > 30 µg/mL | > 30 µg/mL | GI50 at 48 h [14]: > 100 µg/mL; GI50 at 48 h [15]: > 100 µg/mL; MIC50 (Escherichia coli): > 30 µg/mL; MIC90 (Escherichia coli): > 30 µg/mL; MIC50 (Pseudomonas fluorescens): > 30 µg/mL; MIC90 (Pseudomonas fluorescens): > 30 µg/mL; MIC50 (Bacillus subtilis): > 30 µg/mL; MIC90 (Bacillus subtilis): > 30 µg/mL
CN1C/C(=C\c2cc3cc(F)ccc3nc2Cl)C(=O)/C(=C/c2cc3cc(F)ccc3nc2Cl)C1 | > 30 µg/mL | > 30 µg/mL | 34.1% | 14.7% | 39.7% | 32.3% | -0.6% | 7.8% | 0% | 0% | 0% | 12.7% | 10.3% | -0.4% | – | – | – | – | – | – | –
O=C1/C(=C/c2cc3ccccc3nc2Cl)CNC/C1=C\c1cc2ccccc2nc1Cl | > 30 µg/mL | > 30 µg/mL | 33.3% | 43.6% | 9.6% | 26.3% | 23.2% | 22.2% | -14.1% | 0% | 0% | 0% | 0% | 0% | – | – | – | – | – | – | –
